According to US20030073654A1, “Stabilized transient gene expression” (Genespan Corporation, priority 1996, published 2003):
Entries after “also recorded” stand apart in the source; their conditions may differ.

Tests used:
[1] = system: SW480 P3 (ATCC #CCL228) human colon carcinoma cells; test: Screening assay for enhancement of transient expression (β-galactosidase gene, liposomal transfection, 6-well plates); assay type: cell-based
Excerpt: These parameters are called the “X” factor, the “G” factor, and the “K” factor. [formula]
This factor reflects the extent to which a chemical compound added to a transfected cell enhances stabilizes transient expression for the first four days following transfection. […] For example, if expression is doubled in the presence of a compound, […]. […] X may be calculated similarly when the agent in question is a mixture of more than one chemical compound.
Cumulative protein expression, i.e., the values for “A” and “C”, is measured by summing the values measured daily in aliquots of the cultured cells.
2. G factors. G factors differ from the X factor only with respect to the time period evaluated. For calculating a G factor, the amount of protein expressed is measured from days 4-7 or days 4-14, where day 0 is the day on which the foreign DNA is added to the cells. The subscripts denote which of the two time periods provided the basis for measurement. […] As for the X factor, [formula]
3. K factor. The K factor is the ratio of the rate constants for the change in the foreign DNA expression in control transfected cells and in cells exposed to a chemical compound of the subject invention. K is determined according to the following equation: [formula]
wherein “k(DNA)” is the first order rate constant for the change in concentration of the protein expressed from the transgenic DNA, which is expressing protein as a function of time, i.e., [formula]
Values for k(DNA) are derived by using a computer program that plots the log of the foreign protein concentration against time, using the results of transgenic protein measurements that begin about 24 hours after the foreign DNA has been added to the cell. […] However, the program calculates a “best fit” line for each data set, and determines the slope of that portion of the resulting line that corresponds to the period during which protein production is changing. […] Thus, the slope is calculated during this period of decline to provide values for k(DNA) and K that can be compared for the purpose of comparing the efficacy of different chemical compounds.
SW480 P3 (ATCC #CCL228) human colon carcinoma cells (typically, 1×10^6 cells) were plated in the wells of a 6-well tissue culture plate. The number of wells plated reflected the number of days post-transfection during which the experiment would proceed. Each well contained 1 ml of complete media from a 30 ml stock solution containing: 26.4 ml RPMI tissue culture medium, 4 mM L-glutamine, 3.0 ml fetal bovine serum, and 10 μg/ml gentamicin. Cells were cultured at 37° C. in a CO2 incubator with 10% CO2 for 24 hours after being plated, during which time the cells adhered to the plates.
After the 24 hour pre-incubation step, the transfection step was carried out by removing the RPMI and adding 900 μL OPTI-MEM® (Gibco) medium containing 2 μg of VR1412 DNA (Vical, Inc., San Diego, Calif.), which expresses the bacterial β-galactosidase gene under the control of a cytomegalovirus promoter, and 8 μg of a mixture of cationic lipid (1,2-dimyristyloxyproply-3-dimethyl-hydroxyethyl ammonium bromide (e.g., “DMRIE/DOPE”) mixed in equimolar proportions with dioleoylphosphatidylethanolamine) to yield a lipid:DNA molar ratio of 0.99:1. It should be noted that typical transient transfection protocols employ 10 μg DNA per 10^6 cells, but the protocol described here uses less DNA in order to reduce toxicity to the cells. The plates were then incubated for 4 hours at 37° C.
After the 4 hour incubation step, 100 μl of heat deactivated fetal bovine serum (to stop transfection), plus 12.0 μl of 50 mg/ml gentamicin were added to each well.

SW480 cells = test: Transient expression in HPBr hollow fiber perfusion bioreactor (2-week β-galactosidase production); assay type: cell-based, human; details: relatively high rotational speed
Description: A series of four lipofection-based gene transfection experiments were conductive in a high performance hollow fiber perfusion prototype bioreactor device (hereafter referred to as the […] device) in a Genespan prototype incubator instrument. The device consists essentially of a sterile chamber through which two sets of hollow fibers are passed. Culture medium is continuously circulated through one set of fibers, while gases required (e.g., oxygen and carbon dioxide) for cell growth are passed through the second set of fibers. The fibers are composed of a porous material through which gases and nutrients can pass in one direction, while waste molecules produced by the cells growing within the chamber can pass in the other direction. Cells growing in the device may remain in suspension, or may attach to the outer surfaces of both sets of hollow fibers.
A useful feature of the HPBr device is that the cells can be agitated by rotating the chamber through which the tubes pass. […]
Daily samples (about 1.5 ml) of cells and supernatant were taken from the cell compartment of each bioreactor and an equal volume of fresh media was added to replace it. Cell counts and viabilities were determined, and […] were lysed and retained for β-galactosidase determination using the spectrophotometric method described in Example 1. […]

## chondroitin sulfate
[1]
  effect on transient expression: capable of prolonging transient expression
[1]; polyanionic carbohydrates, liposomal transfection
  effect on transient expression when present before or during the transfection step: allowed the transfection to proceed unimpeded; also recorded: enhanced transient expression
SW480 cells
  cell adhesion to microcarrier: enabled the anchorage-dependent cells to adhere well to the microcarrier
